# Experimental data from patent US20190151341A1, “APPLICATION OF TENVERMECTIN FOR PREVENTING AND TREATING PARASITE INFECTION” (ZHEJIANG HISUN PHARMACEUTICAL CO., LTD., priority 2016, published 2019).
# What was measured:
# zebrafish = assay: Toxicity to zebrafish, semi-static method, 96 hours; details: 8 h
# Experimental: Test agents: avermectin, milbemycin, ivermectin, tenvermectin A and tenvermectin B were all from Zhejiang Hisun Pharmaceutical Co., Ltd. The samples were formulated into 50 mg/ml mother liquors with DMF.
# Test fish and water: zebrafish (Brachydanio rerio) was purchased from Zhejiang Academy of Agricultural Sciences, with the same size, average body length of 2-3 cm and average body weight of 0.3 g. The zebrafish was domesticated for 7 days indoors before the test. […] Feeding was stopped 1 day before the test and the fish were not fed during the test. The test water was tap water with residual chlorine removed by exposure to the sun for more than 24 hours, and the pH thereof was 6.8.
# Test methods: semi-static method. Three level differences were provided for each sample: 0.5 ppm, 1.0 ppm and 1.5 ppm, and three parallel groups were provided for each level difference, 10 zebrafish were raised for each group, and blank controls (one group without agents and one group with only solvent) were provided. The corresponding volume of mother liquor was taken according to the concentration as required for each sample, and the volume of each sample was adjusted to 150 μl with DMF, and then each sample was added to the test group (containing 1.6 L of water). The room temperature was controlled at 22±2° C. for 96 hours, and the water was changed every 24 hours and the samples were re-added. The fish mortality rate was recorded for the first 8 hours and at 24, 48, 72 and 96 hours, and the dead fish were removed in time.
# [1] = system: allogynogenetic crucian carp; assay: Toxicity to allogynogenetic crucian carp, semi-static method, 96 hours; format: in vivo
# Excerpt: Test fish and water: allogynogenetic crucian carp was purchased from Taowang Farm in Jiaojiang District, Taizhou City, with a body length of (9.60±0.52) cm and a body weight of (28.22±3.44) g. The healthy and vigorous fish with the same size were selected and temporarily raised in an indoor aquarium. They were domesticated for 7 days indoors before the test. The natural mortality rate was zero.
# 99.4% Tenvermectin A (the mass content of tenvermectin B was 0.02%) (Zhejiang Hisun Pharmaceutical Co., Ltd.);
# Tenvermectin (the mass ratio of tenvermectin A/tenvermectin B was 95/5) (Zhejiang Hisun Pharmaceutical Co., Ltd.);
# Tenvermectin (the mass ratio of tenvermectin A/tenvermectin B was 90/10) (Zhejiang Hisun Pharmaceutical Co., Ltd.);
# Tenvermectin (the mass ratio of tenvermectin A/tenvermectin B was 85/15) (Zhejiang Hisun Pharmaceutical Co., Ltd.);
# 99.1% Tenvermectin B (the mass content of tenvermectin A was 0.51%) (Zhejiang Hisun Pharmaceutical Co., Ltd.);
# 92% Avermectin (Zhejiang Qianjiang Biochemical Co., Ltd.);
# 96% Ivermectin (Zhejiang Hisun Pharmaceutical Co., Ltd.);
# 90% Methylamino avermectin benzoate (Emamectin benzoate) (Zhejiang Shenghua Biok Biotechnology Co., Ltd.).
# Method: semi-static method. […]
# [2] = system: swine nematode (nematodes in the digestive tract); assay: Repelling swine nematode in naturally infected pigs (fecal egg count, McMaster's method); format: in vivo; details: 1% injection 0.2 mg/kg bw s.c.
# Excerpt: (§1) Test agents: 1% ivermectin injection, 1% tenvermectin A injection, and 1% tenvermectin B injection as obtained in Example 1.
# (§2) Test animals and grouping: pigs cultured in the same farm were selected, and 40 pigs naturally infected with nematodes in the digestive tract were selected for testing through fecal examination. The average weight of the test pigs was 30-50 kg. Forty pigs were randomly divided into 4 groups, 10 for each group. The first group was the ivermectin control group, the second group was the tenvermectin A group, and the third group was the tenvermectin B group. All the medicated groups were injected subcutaneously in the neck according to 0.2 mg/kg·bw. The forth group was a blank group and was not administered.
# (§3) 1) The feces of the pigs in each group were collected and examined one by one a day before administration, and worm eggs were counted by the McMaster's method. The number of eggs per gram of feces (EPG) was counted and the condition of Haematopinus on the body surface was observed.
# (§4) 2) 1, 2, 3 and 4 weeks after administration, the feces of the pigs in each group were examined by the McMaster's method, and the EPG was counted and the changes of Haematopinus on the body surface were observed.
# 3) The negative conversion rates and egg reduction rates of the test pigs were calculated by a conventional method to assess the efficacy of repelling swine nematode.
# swine Haematopinus = assay: Killing effect on swine Haematopinus on the body surface; format: in vivo; details: pigs, 1% injection 0.2 mg/kg bw s.c., until the 7th day and in the following 3 weeks
# Excerpt: as §1, §2, §3, §4
# 4) The killing effects of swine Haematopinus of the agents were assessed according to the survival of swine Haematopinus on the 7th day after administration.
# [3] = system: digestive tract nematodes; assay: Repelling nematode in digestive track of sheep (fecal egg count); format: in vivo
# Excerpt: as §1
# Test animals and grouping: sheep grazed under the same condition were selected, and 80 sheep of 0.8-2.0 years old naturally infected with digestive tract nematodes were selected through fecal examination. The average weight of the test sheep was 30 kg. The 80 sheep were randomly divided into 4 groups, 20 heads for each group. The first group was the ivermectin control group, the second group was the tenvermectin A group, and the third group was the tenvermectin B group. All the medicated groups were injected subcutaneously in the neck according to 0.2 mg/kg·bw. The fourth group was a blank group and was not medicated.
# 1) The feces of the sheep in each group were collected and examined one by one a day before administration, and the worm eggs were counted by the McMaster's method, and the number of eggs per gram of feces (EPG) was counted.
# 2) On the 9th day after administration, the sheep of each group were subjected to a fecal examination by McMaster's method, and EPG was counted.
# 3) The egg negative conversion rates and egg reduction rates were calculated according to a conventional method to assess the efficacy.
# Sarcoptes mites = assay: Treatment of Sarcoptes mites of sheep (skin scrapings, live mites); format: in vivo; details: 1% injection 0.2 mg/kg bw s.c.; for Negative conversion number: sheep (10 per group); for Negative conversion rate (%): sheep
# Excerpt: Test agents: 1% ivermectin injection, 1% tenvermectin A injection and 1% tenvermectin B injection as obtained in Example 1.
# Test animals and grouping: sheep grazed under the same conditions were selected. Upon parasitological examination, 40 sheep which had been infected with sheep Sarcoptes mites were selected. The 40 sheep were randomly divided into 4 groups, 10 heads for each group. The first group was the ivermectin control group, the second group was the tenvermectin A group, and the third group was the tenvermectin B group. All the medicated groups were injected subcutaneously in the neck according to 0.2 mg/kg·bw. The fourth group was a blank group and was not medicated.
# Test methods: the changes of clinical symptoms were observed. The skin of sheep was scratched using a surgical blade with glycerin at the junction of the affected part and the healthy skin of the diseased sheep until the skin slightly bled. The skin scraps were taken then were placed in a dish and brought back to the laboratory. Then the skin scraps were placed on a slide, a drop of aqueous solution of 50% glycerol was added, and a cover slip was covered, and then the skin scraps were checked under a low magnification microscope. It was confirmed to be positive if live Sarcoptes mites were observed. Samples were taken before administration and at 1, 2, 3 and 4 weeks after administration to be examined. The samples were examined under a microscope, based on whether live mites were observed, the samples can be determined to be positive as long as one live mite was observed. Changes of clinical symptoms were observed as references.
# [4] = allogynogenetic crucian carp, 0.5 ppm, 8 h
# [5] = allogynogenetic crucian carp, 1.0 ppm, 8 h
# [6] = allogynogenetic crucian carp, 2.0 ppm, 8 h
# [7] = sheep, 1% injection 0.2 mg/kg bw s.c., 9th day after administration
molecule,measurement,setting,value
Milbemycin [reference compound],Survival condition (survival rates/%),zebrafish; 0.5 ppm,0%
same,Survival condition (survival rates/%),zebrafish; 1.0 ppm,0%
same,Survival condition (survival rates/%),zebrafish; 1.5 ppm,0%
same,Survival condition (survival rates/%),[1]; in vivo,0%
"CC[C@H](C)[C@H]1O[C@]2(C=C[C@@H]1C)C[C@@H]1C[C@@H](C/C=C(\C)[C@@H](O[C@H]3C[C@H](OC)[C@@H](O[C@H]4C[C@H](OC)[C@@H](O)[C@H](C)O4)[C@H](C)O3)[C@@H](C)/C=C/C=C3\CO[C@@H]4[C@H](O)C(C)=C[C@@H](C(=O)O1)[C@]34O)O2 [Avermectin, reference compound]",Survival condition (survival rates/%),zebrafish; 0.5 ppm,0%
same,Survival condition (survival rates/%),zebrafish; 1.0 ppm,0%
same,Survival condition (survival rates/%),zebrafish; 1.5 ppm,0%
same,Survival condition (survival rates/%),[1]; [4],0%
same,Survival condition (survival rates/%),[1]; [5],0%
same,Survival condition (survival rates/%),[1]; [6],0%
"CC[C@H](C)C1O[C@]2(C=C[C@@H]1C)C[C@@H]1C[C@@H](C/C=C(\C)[C@@H](O[C@H]3C[C@H](OC)[C@@H](O[C@H]4C[C@H](OC)[C@H](NC)[C@H](C)O4)[C@H](C)O3)[C@@H](C)/C=C/C=C3\CO[C@@H]4[C@H](O)C(C)=C[C@@H](C(=O)O1)[C@]34O)O2.O=C(O)c1ccccc1 (some centres unmarked) [Methylamino avermectin benzoate, reference compound]",Survival condition (survival rates/%),zebrafish; 0.5 ppm,0%
same,Survival condition (survival rates/%),zebrafish; 1.0 ppm,0%
same,Survival condition (survival rates/%),zebrafish; 1.5 ppm,0%
same,Survival condition (survival rates/%),[1]; [4],0%
same,Survival condition (survival rates/%),[1]; [5],0%
same,Survival condition (survival rates/%),[1]; [6],0%
Ivermectin [reference compound],Egg reduction rate (%),[2]; 1st week after administration,76.2%
same,Negative conversion rate (%),[2]; 1st week after administration,70%
same,Egg reduction rate (%),[2]; 2nd week after administration,91.2%
same,Negative conversion rate (%),[2]; 2nd week after administration,90%
same,Egg reduction rate (%),[2]; 3rd week after administration,100%
same,Negative conversion rate (%),[2]; 3rd week after administration,80%
same,Egg reduction rate (%),[2]; 4th week after administration,66.2%
same,Negative conversion rate (%),[2]; 4th week after administration,60%
same,active Haematopinus observed on the body surface,swine Haematopinus,no active Haematopinus was found
same,Number of sheep negatively conversed,"[3]; sheep (20 per group), 1% injection 0.2 mg/kg bw s.c., 9th day after administration",20
same,Egg reduction rate (%),[3]; [7],100%
same,Negative conversion rate (%),[3]; [7],100%
same,EPG after administration,"[3]; sheep, eggs per gram of feces, 0.2 mg/kg bw s.c., 9th day after administration",0
same,EPG before administration,"[3]; sheep, eggs per gram of feces, baseline a day before administration",9100
same,Negative conversion number,Sarcoptes mites; 1st week,7
same,Negative conversion number,Sarcoptes mites; 2nd week,9
same,Negative conversion number,Sarcoptes mites; 3rd week,10
same,Negative conversion number,Sarcoptes mites; 4th week,10
same,Negative conversion rate (%),Sarcoptes mites; 1st week,70%
same,Negative conversion rate (%),Sarcoptes mites; 2nd week,90%
same,Negative conversion rate (%),Sarcoptes mites; 3rd week,100%
same,Negative conversion rate (%),Sarcoptes mites; 4th week,100%
same,Survival condition (survival rates/%),zebrafish; 0.5 ppm,0%
same,Survival condition (survival rates/%),zebrafish; 1.0 ppm,0%
same,Survival condition (survival rates/%),zebrafish; 1.5 ppm,0%
same,Survival condition (survival rates/%),[1]; [4],0%
same,Survival condition (survival rates/%),[1]; [5],0%
same,Survival condition (survival rates/%),[1]; [6],0%
